Dmax and DC50 data for 27 molecules are collected here from patent US12257247B2 (Monte Rosa Therapeutics AG, priority 2023, dated 2025).

Usually Dmax stands for the greatest extent of degradation seen. For orientation: DC50 means the concentration giving 50% degradation.

The target in the assay is T1, VAV1 (Homo sapiens, UniProt P15498+Q96SW2).
T1 construct: A heterozygous VAV1 C-terminal HiBiT knock-in pool was generated at Monte Rosa Therapeutics from a clonal Jurkat cell; endogenous in cells; host or cells: Jurkat clone stably expressing LgBiT, homozygous GSPT1-G575N; heterozygous VAV1-HiBiT knock-in pool
The assay can be described thus: VAV1 degradation activity, VAV1-HiBiT knock-in Jurkat luminescence assay (Example A, Table 1). The settings on record: VAV1-HiBiT knock-in Jurkat cells, luminescence read at 6 and 24 hours; for Dmax: Jurkat. Type of assay: cell-based. The method, boiled down: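 Jurkat cells carrying VAV1-HiBiT knock-in, plated in RPMI/10% FBS with Endurazine live-cell substrate and pre-incubated ~16 h at 37° C. Compound dosed from 10 μM stock; luminescence read 6 and 24 h later. Response normalised to plate negative/positive controls, EC50 from 3-parameter logistic fit (hillslope 1).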

Where [1] appears, read: read-out: VAV1 DC50 (nM), class.

Read-outs that look alike come from different tables or passages of the source.

For `O=C1CCC(c2cccc(-c3ccc(N4C(=O)C[C@@H]5CCC[C@@H]54)cc3)c2Cl)C(=O)N1` (stereo partly drawn) [Compound 327], the Dmax reads like this: (read-out: VAV1 Dmax %) 89.3%; (read-out: VAV1 Dmax %, class) 60 to 90%. The DC50 is 30.1 nM (read-out: VAV1 DC50) and no more than 100 nM under setting [1].
In the case of `O=C1CCC(c2cccc(-c3ccc(N4Cc5nccn5CC4=O)cc3)c2Cl)C(=O)N1` (stereo not drawn) [Compound 328], the Dmax reads like this: (read-out: VAV1 Dmax %) 90.8%; (read-out: VAV1 Dmax %, class) greater than 90%. Besides, the DC50 reads like this: (read-out: VAV1 DC50) 15 nM; under setting [1], no more than 100 nM.
For the molecule `CC1CCCN(c2ccc(-c3cccc(C4CCC(=O)NC4=O)c3Cl)cc2)C1=O` (stereo not drawn) [Compound 329], the Dmax by setting is: (read-out: VAV1 Dmax %) 95.8%; (read-out: VAV1 Dmax %, class) greater than 90%. Besides, the DC50 is 6.62 nM (read-out: VAV1 DC50) and no more than 100 nM under setting [1].
In the case of `O=C1CCC(c2cccc(-c3ccc(N4C(=O)CCn5nccc54)cc3)c2Cl)C(=O)N1` (stereo not drawn) [Compound 330], the Dmax (read-out: VAV1 Dmax %) was 72.1% and the Dmax (read-out: VAV1 Dmax %, class) was 60 to 90%. Also, the DC50 runs as follows: (read-out: VAV1 DC50) 130 nM; under setting [1], 100 to 1000 nM.
The corresponding values for `CN1CCN(c2ccc(-c3cccc(C4CCC(=O)NC4=O)c3Cl)cc2)C(=O)C1` (stereo not drawn) [Compound 331] are 91.6%, greater than 90%, 17.2 nM and no more than 100 nM.
With `CC1CCN(c2ccc(-c3cccc(C4CCC(=O)NC4=O)c3Cl)cc2)C(=O)C1` (stereo not drawn) [Compound 332], the Dmax (read-out: VAV1 Dmax %) came to 95.5% and the Dmax (read-out: VAV1 Dmax %, class) was greater than 90%. Also, the DC50 is 10.6 nM (read-out: VAV1 DC50) and no more than 100 nM under setting [1].
With `Cc1nn(C)c2c1N(c1ccc(-c3cccc(C4CCC(=O)NC4=O)c3Cl)cc1)C(=O)CO2` (stereo not drawn) [Compound 333], the Dmax was 98.2% (read-out: VAV1 Dmax %) and greater than 90% (read-out: VAV1 Dmax %, class). Moreover, the DC50 was 3.17 nM (read-out: VAV1 DC50) and no more than 100 nM under setting [1].
For the molecule `CN1CC(=O)N(c2ccc(-c3cccc(C4CCC(=O)NC4=O)c3Cl)cc2)c2cnccc21` (stereo not drawn) [Compound 334], the Dmax is, setting by setting: (read-out: VAV1 Dmax %) 93.5%; (read-out: VAV1 Dmax %, class) greater than 90%. The DC50 was 11.1 nM (read-out: VAV1 DC50) and no more than 100 nM under setting [1].
On to `CN1CC(=O)N(c2ccc(-c3cccc(C4CCC(=O)NC4=O)c3Cl)cc2)c2cccnc21` (stereo not drawn) [Compound 335], for which the Dmax is 97.3% (read-out: VAV1 Dmax %) and greater than 90% (read-out: VAV1 Dmax %, class). Further, the DC50 was 5.87 nM (read-out: VAV1 DC50) and no more than 100 nM under setting [1].
`O=C1CCC(c2cccc(-c3ccc(N4CCOCC4=O)cc3)c2Cl)C(=O)N1` (stereo not drawn) [Compound 336]: the maximal degradation (Dmax) (read-out: VAV1 Dmax %) turned out to be 93.5% and the Dmax (read-out: VAV1 Dmax %, class) is greater than 90%. In addition, the DC50 runs as follows: (read-out: VAV1 DC50) 17.4 nM; under setting [1], no more than 100 nM.
Consider `O=C1CCC(c2cccc(-c3ccc(C4(N5CCCCC5=O)CC4)cc3)c2Cl)C(=O)N1` (stereo not drawn) [Compound 337, 3-[2-chloro-3-[4-[1-(2-oxo-1-piperidyl)cyclopropyl]phenyl]phenyl]piperidine-2,6-dione], for which the Dmax is 40% (read-out: VAV1 Dmax %) and less than 60% (read-out: VAV1 Dmax %, class). For the same molecule, the DC50 is 5770 nM (read-out: VAV1 DC50) and greater than 1000 nM under setting [1].
Take `O=C1CCC(c2cccc(-c3ccc(N4CCOCC4)cc3)c2Cl)C(=O)N1` (stereo not drawn) [Compound 338, 3-(2-chloro-4′-morpholino-[1,1′-biphenyl]-3-yl)piperidine-2,6-dione]: the Dmax by setting is: (read-out: VAV1 Dmax %) 57.8%; (read-out: VAV1 Dmax %, class) less than 60%. For the same molecule, the DC50 was 2170 nM (read-out: VAV1 DC50) and greater than 1000 nM under setting [1].
`O=C1CCC(c2cccc(-c3ccc(N4C(=O)CCCC45CCC5)cc3)c2Cl)C(=O)N1` (stereo not drawn) [Compound 339, 3-(2-chloro-4′-(6-oxo-5-azaspiro[3.5]nonan-5-yl)-[1,1′-biphenyl]-3-yl)piperidine-2,6-dione]: the Dmax reads like this: (read-out: VAV1 Dmax %) 98.2%; (read-out: VAV1 Dmax %, class) greater than 90%. Besides, the DC50 is 1.96 nM (read-out: VAV1 DC50) and no more than 100 nM under setting [1].
Turning to `O=C1CCC(c2cccc(-c3ccc(Cc4nccc(C5COC5)n4)cc3)c2Cl)C(=O)N1` (stereo not drawn) [Compound 340, 3-(2-chloro-4′-((4-(oxetan-3-yl)pyrimidin-2-yl)methyl)-[1,1′-biphenyl]-3-yl)piperidine-2,6-dione], the Dmax (read-out: VAV1 Dmax %) amounted to 96.6% and the Dmax (read-out: VAV1 Dmax %, class) is greater than 90%. For the same molecule, the half-maximal degradation concentration (DC50) is 5.86 nM (read-out: VAV1 DC50) and no more than 100 nM under setting [1].
Take `CN1CC2(CCC2)N(c2ccc(-c3cccc(C4CCC(=O)NC4=O)c3Cl)cc2)C1=O` (stereo not drawn) [Compound 341, 3-(2-chloro-4′-(7-methyl-6-oxo-5,7-diazaspiro[3.4]octan-5-yl)-[1,1′-biphenyl]-3-yl)piperidine-2,6-dione]: the Dmax (read-out: VAV1 Dmax %) is 98.2% and the maximal degradation (Dmax) (read-out: VAV1 Dmax %, class) was greater than 90%. Also, the DC50 (read-out: VAV1 DC50) came out at 2.46 nM and the DC50 under setting [1] was no more than 100 nM.
For `CN1CC2(CC2)N(c2ccc(-c3cccc(C4CCC(=O)NC4=O)c3Cl)cc2)C1=O` (stereo not drawn) [Compound 342, 3-(2-chloro-4′-(6-methyl-5-oxo-4,6-diazaspiro[2.4]heptan-4-yl)-[1,1′-biphenyl]-3-yl)piperidine-2,6-dione], in that order: 97.7%, greater than 90%, 4.56 nM and no more than 100 nM.
Consider `O=C1CCC(c2cccc(-c3ccc(-n4c(F)cccc4=O)nc3)c2Cl)C(=O)N1` (stereo not drawn) [Compound 343, 3-(2-chloro-3-(6-fluoro-2-oxo-2H-[1,2′-bipyridin]-5′-yl)phenyl)piperidine-2,6-dione], for which the greatest degradation seen (Dmax) (read-out: VAV1 Dmax %) was 86.3% and the Dmax (read-out: VAV1 Dmax %, class) fell in the range of 60 to 90%. Further, the half-maximal degradation concentration (DC50) (read-out: VAV1 DC50) is 161 nM and the DC50 under setting [1] fell in the range of 100 to 1000 nM.
Take `O=C1CCC(c2cccc(-c3ccc(Cc4nccc(C5CC5)n4)cc3)c2Cl)C(=O)N1` (stereo not drawn) [Compound 344, 3-(2-chloro-4′-((4-cyclopropylpyrimidin-2-yl)methyl)-[1,1′-biphenyl]-3-yl)piperidine-2,6-dione]: the Dmax (read-out: VAV1 Dmax %) is 98% and the Dmax (read-out: VAV1 Dmax %, class) was greater than 90%. For the same molecule, the DC50 is 6.97 nM (read-out: VAV1 DC50) and no more than 100 nM under setting [1].
On to `O=C1CCC(c2cccc(-c3ccc(N4C(=O)OCCC45CC5)cc3)c2Cl)C(=O)N1` (stereo not drawn) [Compound 345, 3-(2-chloro-4′-(5-oxo-6-oxa-4-azaspiro[2.5]octan-4-yl)-[1,1′-biphenyl]-3-yl)piperidine-2,6-dione], for which the Dmax runs as follows: (read-out: VAV1 Dmax %) 97.9%; (read-out: VAV1 Dmax %, class) greater than 90%. Also, the DC50 is 3.53 nM (read-out: VAV1 DC50) and no more than 100 nM under setting [1].
Turning to `CN1CC(=O)N(c2ccc(-c3cccc(C4CCC(=O)NC4=O)c3Cl)cn2)CC12CC2` (stereo not drawn) [Compound 346, 3-(2-chloro-3-(6-(4-methyl-6-oxo-4,7-diazaspiro[2.5]octan-7-yl)pyridin-3-yl)phenyl)piperidine-2,6-dione], the Dmax reads like this: (read-out: VAV1 Dmax %) 29.4%; (read-out: VAV1 Dmax %, class) less than 60%. The half-maximal degradation concentration (DC50) by setting is: (read-out: VAV1 DC50) no less than 10000 nM; under setting [1], greater than 1000 nM.
The corresponding values for `O=C1CCC(c2cccc(-c3ccc(Cc4nccc(C(F)(F)F)n4)cc3)c2Cl)C(=O)N1` (stereo not drawn) [Compound 347, 3-(2-chloro-4′-((4-(trifluoromethyl)pyrimidin-2-yl)methyl)-[1,1′-biphenyl]-3-yl)piperidine-2,6-dione] are 96.4%, greater than 90%, 17.1 nM and no more than 100 nM.
Consider `O=C1CCC(c2cccc(-c3ccc(Cc4nccc(C(F)F)n4)cc3)c2Cl)C(=O)N1` (stereo not drawn) [Compound 348, 3-(2-chloro-4′-((4-(difluoromethyl)pyrimidin-2-yl)methyl)-[1,1′-biphenyl]-3-yl)piperidine-2,6-dione], for which the Dmax runs as follows: (read-out: VAV1 Dmax %) 95.2%; (read-out: VAV1 Dmax %, class) greater than 90%. Further, the DC50 was 11.7 nM (read-out: VAV1 DC50) and no more than 100 nM under setting [1].
Consider `O=C1CCC(c2cccc(-c3ccc(N4C(=O)NCCC45CCC5)cc3)c2Cl)C(=O)N1` (stereo not drawn) [Compound 349, 3-(2-chloro-4′-(6-oxo-5,7-diazaspiro[3.5]nonan-5-yl)-[1,1′-biphenyl]-3-yl)piperidine-2,6-dione], for which the Dmax runs as follows: (read-out: VAV1 Dmax %) 98.3%; (read-out: VAV1 Dmax %, class) greater than 90%. Further, the DC50 is, setting by setting: (read-out: VAV1 DC50) 2.21 nM; under setting [1], no more than 100 nM.
The corresponding values for `O=C1CCC(c2cccc(-c3ccc(N4C(=O)CCCC45CC5)c(F)c3)c2Cl)C(=O)N1` (stereo not drawn) [Compound 350, 3-(2-chloro-3′-fluoro-4′-(5-oxo-4-azaspiro[2.5]octan-4-yl)-[1,1′-biphenyl]-3-yl)piperidine-2,6-dione] are 97.3%, greater than 90%, 7.18 nM and no more than 100 nM.
On to `O=C1CCC(c2cccc(-c3ccc(N4C(=O)OCCC45CC5)nc3)c2Cl)C(=O)N1` (stereo not drawn) [Compound 351, 3-(2-chloro-3-(6-(5-oxo-6-oxa-4-azaspiro[2.5]octan-4-yl)pyridin-3-yl)phenyl)piperidine-2,6-dione], for which the Dmax is 87% (read-out: VAV1 Dmax %) and 60 to 90% (read-out: VAV1 Dmax %, class). For the same molecule, the DC50 runs as follows: (read-out: VAV1 DC50) 82.5 nM; under setting [1], no more than 100 nM.
The corresponding values for `CN1CC(=O)N(c2ccc(-c3cccc(C4CCC(=O)NC4=O)c3Cl)cc2)CC12CC2` (stereo not drawn) [Compound 352, 3-(2-chloro-4′-(4-methyl-6-oxo-4,7-diazaspiro[2.5]octan-7-yl)-[1,1′-biphenyl]-3-yl)piperidine-2,6-dione] are 82.3%, 60 to 90%, 65.3 nM and no more than 100 nM.
With `Cc1cccc(=O)n1-c1ccc(-c2cccc(C3CCC(=O)NC3=O)c2Cl)cn1` (stereo not drawn) [Compound 353, 3-(2-chloro-3-(6-methyl-2-oxo-2H-[1,2′-bipyridin]-5′-yl)phenyl)piperidine-2,6-dione], the Dmax is 90.7% (read-out: VAV1 Dmax %) and greater than 90% (read-out: VAV1 Dmax %, class). In addition, the 50% degradation concentration (DC50) (read-out: VAV1 DC50) amounted to 62.1 nM and the DC50 under setting [1] was no more than 100 nM.
